Data set [1] deals with PXR. As to conditions: only at very high concentrations, 20 or 40 μM; cited from earlier work.
The next data set relates to CAR. Conditions: only at very high concentrations, 20 or 40 μM; cited from earlier work.
In data set [2] the test system is PXR. As to conditions: cited from earlier work.
For another data set, the target named is T1, GST-hCAR-LBD (Homo sapiens, UniProt Q14994).
T1 sequence (Q14994 109-348 isoform Q14994-2 limits assumed): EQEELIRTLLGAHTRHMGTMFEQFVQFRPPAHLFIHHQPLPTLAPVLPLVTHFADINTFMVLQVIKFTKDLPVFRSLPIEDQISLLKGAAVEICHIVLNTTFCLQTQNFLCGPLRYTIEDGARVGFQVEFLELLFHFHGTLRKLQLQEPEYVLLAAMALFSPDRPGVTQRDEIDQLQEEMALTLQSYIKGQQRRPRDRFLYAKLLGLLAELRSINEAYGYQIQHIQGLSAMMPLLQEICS
Kind of data set: CAR-mediated fluorescent PGC1α coactivator recruitment/repression assay. As to conditions: ratio of IC50 values; for fold more potent than lead compound CINPA1 (11) / fold increase of IC50 (less potent) relative to lead chemical 11: comparator 11 (IC50 687 nM).

Another data set has as its system hCAR. As to conditions: cultured human hepatocytes; cited from earlier work.

For `C=CCN=C=S` [AITC, allyl isothiocyanate], the “inhibitory effect against PXR” value in the data set with PXR [1] was “inhibitory effects against both CAR and PXR”. In the data set with CAR, the “inhibitory effect against CAR” value is “inhibitory effects against both CAR and PXR”. Turning to `CCOC(=O)Nc1ccc2c(c1)N(C(=O)CN(CC)CC)c1ccccc1CC2` [Compound 11, ethyl (5-(diethylglycyl)-10,11-dihydro-5H-dibenzo[b,f]azepin-3-yl)carbamate], the PXR activation entry with PXR [2] is given as “does not activate PXR”.

With `CCOC(=O)Nc1ccc2c(c1)N(C(=O)CN1CCOCC1)c1ccccc1CC2` [Compound 12], the “fold more potent than lead compound CINPA1 (11)” value at GST-hCAR-LBD is listed as “about 3 fold”. Take `CCOC(=O)Nc1ccc2c(c1)N(C(=O)CN1CCN(C)CC1)c1ccccc1CC2` [Compound 13]: the “fold increase of IC50 (less potent) relative to lead chemical 11” value on GST-hCAR-LBD is on record as 56 fold. Turning to `CCOC(=O)Nc1ccc2c(c1)N(C(=O)CNC(C)(C)C)c1ccccc1CC2` [Compound 16], on GST-hCAR-LBD, the “fold increase of IC50 (less potent) relative to lead chemical 11” value turned out to be 5 fold.

`CC(C)OC(=O)Nc1ccc2c(c1)N(C(=O)CCN(C)C)c1ccccc1CC2` [Compound 20]: the “fold increase in potency compared to chemical 18” value at GST-hCAR-LBD (comparator 18) was “about 3 fold”. Take `CCCN(CCC)CC(=O)N1c2ccccc2CCc2ccc(NC(=O)OCC)cc21` [Compound 22, Ethyl (5-(dipropylglycyl)-10,11-dihydro-5H-dibenzo[b,f]azepin-3-yl)carbamate]: the “fold more potent than lead compound CINPA1 (11)” value on GST-hCAR-LBD is on record as 3 fold. In the case of `CCOC(=O)Nc1ccc2c(c1)N(C(=O)CN(C(C)C)C(C)C)c1ccccc1CC2` [Compound 23, Ethyl (5-(diisopropylglycyl)-10,11-dihydro-5H-dibenzo[b,f]azepin-3-yl)carbamate], the “fold increase of IC50 (less potent) relative to lead chemical 11” value on GST-hCAR-LBD is “more than 4 fold”.

As for `CCOC(=O)Nc1ccc2c(c1)N(C(=O)CN1CCCC1)c1ccccc1CC2` [Compound 24, Ethyl (5-(2-(pyrrolidin-1-yl)acetyl)-10,11-dihydro-5H-dibenzo[b,f]azepin-3-yl)carbamate], at GST-hCAR-LBD, the “fold increase of IC50 (less potent) relative to lead chemical 11” value is recorded as “more than 2 fold”. Turning to `CCOC(=O)Nc1ccc2c(c1)N(C(=O)CN1C(C)(C)CCCC1(C)C)c1ccccc1CC2` [Compound 26, Ethyl (5-(2-(2,2,6,6-tetramethylpiperidin-1-yl)acetyl)-10,11-dihydro-5H-dibenzo[b,f]azepin-3-yl)carbamate], the “fold IC50 relative to chemical 25” value on GST-hCAR-LBD (comparator 25) is given as “over 6 fold”. `CCOC(=O)Nc1ccc2c(c1)N(C(=O)CN1C(=O)C=CC1=O)c1ccccc1CC2` [Compound 28, Ethyl (5-(2-(2,5-dioxo-2,5-dihydro-1H-pyrrol-1-yl)acetyl)-10,11-dihydro-5H-dibenzo[b,f]azepin-3-yl)carbamate]: the “fold IC50 relative to chemical 24” value at GST-hCAR-LBD (comparator 24, less active) stood at 25 fold. In the case of `CCOC(=O)Nc1ccc2c(c1)N(C(=O)Cn1cccc1)c1ccccc1CC2` [Compound 29, Ethyl (5-(2-(1H-pyrrol-1-yl)acetyl)-10,11-dihydro-5H-dibenzo[b,f]azepin-3-yl)carbamate], the “fold more potent than lead compound CINPA1 (11)” value at GST-hCAR-LBD is 19 fold. Further, the “fold more potent than chemical 24” value on GST-hCAR-LBD (comparator 24) turned out to be 43 fold.

As for `CCOC(=O)Nc1ccc2c(c1)N(C(=O)Cn1ccnc1)c1ccccc1CC2` [Compound 30, Ethyl (5-(2-(1H-imidazol-1-yl)acetyl)-10,11-dihydro-5H-dibenzo[b,f]azepin-3-yl)carbamate], on GST-hCAR-LBD (comparator 29, loss of activity), the “fold IC50 relative to chemical 29” value was 186 fold. Take `CCOC(=O)Nc1ccc2c(c1)N(C(=O)CNC(C)(C)CC)c1ccccc1CC2` [Compound 32, Ethyl (5-(tert-pentylglycyl)-10,11-dihydro-5H-dibenzo[b,f]azepin-3-yl)carbamate]: at GST-hCAR-LBD, the “fold increase of IC50 (less potent) relative to lead chemical 11” value came to 3 fold. Consider `CCOC(=O)Nc1ccc2c(c1)N(C(=O)CCN(CC)CC)c1ccccc1CC2` [Compound 33, Ethyl (5-(3-(diethylamino)propanoyl)-10,11-dihydro-5H-dibenzo[b,f]azepin-3-yl)carbamate], for which the “fold increase of IC50 (less potent) relative to lead chemical 11” value on GST-hCAR-LBD was 3.5 fold. For the molecule `CCOC(=O)Nc1ccc2c(c1)N(C(=O)COC(C)(C)C)c1ccccc1CC2` [Compound 35, Ethyl (5-(2-(tert-butoxy)acetyl)-10,11-dihydro-5H-dibenzo[b,f]azepin-3-yl)carbamate], the “fold more potent than lead compound CINPA1 (11)” value at GST-hCAR-LBD is 9.7 fold. Turning to `CCN(CC)CC(=O)N1c2ccccc2CCc2ccc(Nc3nnc(C)o3)cc21` [Compound 44, 2-(Diethylamino)-1-(3-((5-methyl-1,3,4-oxadiazol-2-yl)amino)-10,11-dihydro-5H-dibenzo[b,f]azepin-5-yl)ethan-1-one], the “fold increase of IC50 (less potent) relative to lead chemical 11” value at GST-hCAR-LBD was “about 3.4 fold”.

On to `CC(C)OC(=O)Nc1ccc2c(c1)N(C(=O)Cn1cccc1)c1ccccc1CC2` [Compound 56, Isopropyl (5-(2-(1H-pyrrol-1-yl)acetyl)-10,11-dihydro-5H-dibenzo[b,f]azepin-3-yl)carbamate], for which, on GST-hCAR-LBD, the “fold more potent than lead compound CINPA1 (11)” value came to 32.8 fold. On the same count and under the same terms, then `O=C(Nc1ccc2c(c1)N(C(=O)Cn1cccc1)c1ccccc1CC2)OC1CCCCC1` [Compound 72, Cyclohexyl (5-(2-(1H-pyrrol-1-yl)acetyl)-10,11-dihydro-5H-dibenzo[b,f]azepin-3-yl)carbamate], with “about 59 fold”. Turning to `Cc1cccc(CN2CCN(C(c3ccccc3)c3ccc(Cl)cc3)CC2)c1` (stereo not shown) [Meclizine], the “hCAR inverse agonist or antagonist effect” value with hCAR is on record as “failed to act as an effective hCAR inverse agonist or antagonist”.
